Measured values taken from publication PMC4577729, “7-(Pyrazol-4-yl)-3H-imidazo[4,5-b]pyridine-based derivatives for kinase inhibition: Co-crystallisation studies with Aurora-A reveal distinct differences in the orientation of the pyrazole N1-substituent” (Bioorganic & Medicinal Chemistry Letters, 2015).

Key:
[1] = biological target: JNK1 (Homo sapiens, UniProt P45983); assay: Kinase selectivity profiling; assay type: biochemical; settings: 1 µM, assay duplicates
Protocol: (§1) [20] Kinase selectivity profiling for compounds 7a, 7d, 14d and 14g was carried out at the International Centre for Protein Kinase Profiling, Division of Signal Transduction Therapy, University of Dundee.
(§2) Table S1: Kinase selectivity profiling of compounds 7a and 7d in a 102-kinase panel screened at a concentration of 1 µM.
(§3) Table S2: Kinase selectivity profiling of compounds 14d and 14g in a 105-kinase panel screened at a concentration of 1 µM.

[2] = biological target: MSK1 (Homo sapiens, UniProt O75582); assay: Kinase selectivity profiling; assay type: biochemical; settings: 1 µM, assay duplicates
Protocol: as §1, §2, §3

[3] = biological target: YES1 (Homo sapiens, UniProt P07947); assay: Kinase selectivity profiling; assay type: biochemical; settings: 1 µM, assay duplicates
Protocol: as §1, §2, §3

[4] = biological target: MST2 (Homo sapiens, UniProt Q13188); assay: Kinase selectivity profiling; assay type: biochemical; settings: 1 µM, assay duplicates
Protocol: as §1, §2, §3

[5] = biological target: S6K1 (Homo sapiens, UniProt P23443); assay: Kinase selectivity profiling; assay type: biochemical; settings: 1 µM, assay duplicates
Protocol: as §1, §2, §3

[6] = biological target: ROCK 2 (Homo sapiens, UniProt O75116); assay: Kinase selectivity profiling; assay type: biochemical; settings: 1 µM, assay duplicates
Protocol: as §1, §2, §3

[7] = biological target: Src (Homo sapiens, UniProt P12931); assay: Kinase selectivity profiling; assay type: biochemical; settings: 1 µM, assay duplicates
Protocol: as §1, §2, §3

[8] = biological target: PIM2 (Homo sapiens, UniProt Q9P1W9); assay: Kinase selectivity profiling; assay type: biochemical; settings: 1 µM, assay duplicates
Protocol: as §1, §2, §3

[9] = biological target: PLK1 (Homo sapiens, UniProt P53350); assay: Kinase selectivity profiling; assay type: biochemical; settings: 1 µM, assay duplicates
Protocol: as §1, §2, §3

[10] = biological target: DYRK2 (Homo sapiens, UniProt Q92630); assay: Kinase selectivity profiling; assay type: biochemical; settings: 1 µM, assay duplicates
Protocol: as §1, §2, §3

[11] = biological target: CDK2-Cyclin A (Homo sapiens, UniProt P24941); assay: Kinase selectivity profiling; assay type: biochemical; settings: 1 µM, assay duplicates
Protocol: as §1, §2, §3

[12] = biological target: TBK1 (Homo sapiens, UniProt Q9UHD2); assay: Kinase selectivity profiling; assay type: biochemical; settings: 1 µM, assay duplicates
Protocol: as §1, §2, §3

[13] = biological target: ERK1 (Homo sapiens, UniProt P27361); assay: Kinase selectivity profiling; assay type: biochemical; settings: 1 µM, assay duplicates
Protocol: as §1, §2, §3

[14] = biological target: PDK1 (Homo sapiens, UniProt O15530); assay: Kinase selectivity profiling; assay type: biochemical; settings: 1 µM, assay duplicates
Protocol: as §1, §2, §3

[15] = biological target: PRK2 (Homo sapiens, UniProt Q16513); assay: Kinase selectivity profiling; assay type: biochemical; settings: 1 µM, assay duplicates
Protocol: as §1, §2, §3

[16] = biological target: PKCz (Homo sapiens, UniProt Q05513); assay: Kinase selectivity profiling; assay type: biochemical; settings: 1 µM, assay duplicates
Protocol: as §1, §2, §3

[17] = biological target: BRSK2 (Homo sapiens, UniProt Q8IWQ3); assay: Kinase selectivity profiling; assay type: biochemical; settings: 1 µM, assay duplicates
Protocol: as §1, §2, §3

[18] = biological target: CAMK1 (Homo sapiens, UniProt Q14012); assay: Kinase selectivity profiling; assay type: biochemical; settings: 1 µM, assay duplicates
Protocol: as §1, §2, §3

[19] = biological target: CHK1 (Homo sapiens, UniProt O14757); assay: Kinase selectivity profiling; assay type: biochemical; settings: 1 µM, assay duplicates
Protocol: as §1, §2, §3

[20] = biological target: GCK (Homo sapiens, UniProt Q12851); assay: Kinase selectivity profiling; assay type: biochemical; settings: 1 µM, assay duplicates
Protocol: as §1, §2, §3

[21] = biological target: IRR (Homo sapiens, UniProt P14616); assay: Kinase selectivity profiling; assay type: biochemical; settings: 1 µM, assay duplicates
Protocol: as §1, §2, §3

[22] = biological target: PKCa (Homo sapiens, UniProt P17252); assay: Kinase selectivity profiling; assay type: biochemical; settings: 1 µM, assay duplicates
Protocol: as §1, §2, §3

[23] = biological target: PKA (Homo sapiens, UniProt P17612); assay: Kinase selectivity profiling; assay type: biochemical; settings: 1 µM, assay duplicates
Protocol: as §1, §2, §3

[24] = biological target: IR (Homo sapiens, UniProt P06213); assay: Kinase selectivity profiling; assay type: biochemical; settings: 1 µM, assay duplicates
Protocol: as §1, §2, §3

[25] = biological target: HIPK2 (Homo sapiens, UniProt Q9H2X6); assay: Kinase selectivity profiling; assay type: biochemical; settings: 1 µM, assay duplicates
Protocol: as §1, §2, §3

[26] = biological target: TAK1 (Homo sapiens, UniProt O43318); assay: Kinase selectivity profiling; assay type: biochemical; settings: 1 µM, assay duplicates
Protocol: as §1, §2, §3

[27] = test system: HCT116 human colon carcinoma cells; assay: HCT116 cell growth inhibition; assay type: cell-based; settings: 72 h incubation
Excerpt: (§4) As part of our medicinal chemistry programme to discover selective inhibitors of Aurora-A,[12] we introduced the 1-benzyl-1H-pyrazol-4-yl moiety at C7 of the imidazo[4,5-b]pyridine scaffold to provide 7a (Table 1). We previously reported 1,3-dimethyl-1H-pyrazol-4-yl as a preferred substituent at the C2 position of the imidazo[4,5-b]pyridine scaffold[11] and this moiety was therefore incorporated into the design of 7a and analogues presented in this study. […] This in vitro profile prompted us to investigate this C7-pyrazole substituted imidazo[4,5-b]pyridine subseries in more detail. Firstly, we attempted to increase biochemical potency against Aurora-A, and also to improve microsomal stability.

[28] = Mouse liver microsomal stability; assay type: in vitro ADME; settings: percentage of compound metabolised after a 30 min incubation, mouse liver microsomes
Protocol: (§5) [18] MLM and HLM microsomal stabilities were determined as described in Ref. [12].

[29] = biological target: Aurora B (Homo sapiens, UniProt Q96GD4); assay: Aurora-B microfluidic kinase assay; settings: biochemical; mean of two determinations or mean ±SD for n > 2
Excerpt: as §4
(§6) [17] Aurora-A and Aurora-B IC50 values were determined by using a microfluidic assay which monitors the separation of a phosphorylated product from its substrate, as described in Ref. [12].

[30] = biological target: T1, Aurora A (Homo sapiens, UniProt O14965); assay: Aurora-A microfluidic kinase assay; assay type: biochemical; settings: biochemical; mean of two determinations or mean ±SD for n > 2
T1 sequence (O14965 1-403): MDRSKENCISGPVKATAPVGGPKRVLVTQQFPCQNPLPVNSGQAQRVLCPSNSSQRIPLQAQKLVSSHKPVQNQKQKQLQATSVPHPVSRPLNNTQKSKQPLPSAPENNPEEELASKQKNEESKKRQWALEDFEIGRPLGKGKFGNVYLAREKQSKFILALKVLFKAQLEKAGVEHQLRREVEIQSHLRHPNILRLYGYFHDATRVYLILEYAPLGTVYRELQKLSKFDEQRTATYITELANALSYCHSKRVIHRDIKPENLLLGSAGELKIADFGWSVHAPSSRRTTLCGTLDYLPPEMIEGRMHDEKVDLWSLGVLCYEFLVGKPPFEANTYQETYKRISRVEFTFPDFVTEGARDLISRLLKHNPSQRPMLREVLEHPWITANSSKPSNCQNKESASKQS
Excerpt: as §4, §6

[31] = Human liver microsomal stability; assay type: in vitro ADME; settings: percentage of compound metabolised after a 30 min incubation, human liver microsomes
Protocol: as §5

[32] = test system: SW620 human colon carcinoma cells; assay: SW620 cell growth inhibition; assay type: cell-based; settings: 72 h incubation
Excerpt: as §4

Sequence of TBK1 (Q9UHD2 whole entry): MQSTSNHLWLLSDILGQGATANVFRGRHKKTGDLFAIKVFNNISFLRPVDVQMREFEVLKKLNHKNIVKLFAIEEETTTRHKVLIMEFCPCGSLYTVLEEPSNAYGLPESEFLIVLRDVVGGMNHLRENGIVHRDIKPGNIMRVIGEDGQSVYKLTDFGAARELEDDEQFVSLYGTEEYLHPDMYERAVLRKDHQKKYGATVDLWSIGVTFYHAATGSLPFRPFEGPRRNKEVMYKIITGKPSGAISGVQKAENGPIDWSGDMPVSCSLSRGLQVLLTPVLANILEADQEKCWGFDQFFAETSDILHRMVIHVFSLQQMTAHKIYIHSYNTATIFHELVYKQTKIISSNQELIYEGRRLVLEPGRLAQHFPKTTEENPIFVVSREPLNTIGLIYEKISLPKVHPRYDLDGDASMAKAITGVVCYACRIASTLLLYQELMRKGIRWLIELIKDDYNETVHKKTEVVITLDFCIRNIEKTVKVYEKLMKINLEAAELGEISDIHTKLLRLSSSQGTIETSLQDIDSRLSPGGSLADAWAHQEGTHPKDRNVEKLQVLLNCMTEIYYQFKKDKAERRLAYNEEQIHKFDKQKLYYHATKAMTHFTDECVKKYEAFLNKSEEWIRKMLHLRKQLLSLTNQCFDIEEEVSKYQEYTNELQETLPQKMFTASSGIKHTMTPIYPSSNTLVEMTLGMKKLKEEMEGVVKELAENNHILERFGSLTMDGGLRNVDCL
Sequence of ROCK 2 (O75116 whole entry): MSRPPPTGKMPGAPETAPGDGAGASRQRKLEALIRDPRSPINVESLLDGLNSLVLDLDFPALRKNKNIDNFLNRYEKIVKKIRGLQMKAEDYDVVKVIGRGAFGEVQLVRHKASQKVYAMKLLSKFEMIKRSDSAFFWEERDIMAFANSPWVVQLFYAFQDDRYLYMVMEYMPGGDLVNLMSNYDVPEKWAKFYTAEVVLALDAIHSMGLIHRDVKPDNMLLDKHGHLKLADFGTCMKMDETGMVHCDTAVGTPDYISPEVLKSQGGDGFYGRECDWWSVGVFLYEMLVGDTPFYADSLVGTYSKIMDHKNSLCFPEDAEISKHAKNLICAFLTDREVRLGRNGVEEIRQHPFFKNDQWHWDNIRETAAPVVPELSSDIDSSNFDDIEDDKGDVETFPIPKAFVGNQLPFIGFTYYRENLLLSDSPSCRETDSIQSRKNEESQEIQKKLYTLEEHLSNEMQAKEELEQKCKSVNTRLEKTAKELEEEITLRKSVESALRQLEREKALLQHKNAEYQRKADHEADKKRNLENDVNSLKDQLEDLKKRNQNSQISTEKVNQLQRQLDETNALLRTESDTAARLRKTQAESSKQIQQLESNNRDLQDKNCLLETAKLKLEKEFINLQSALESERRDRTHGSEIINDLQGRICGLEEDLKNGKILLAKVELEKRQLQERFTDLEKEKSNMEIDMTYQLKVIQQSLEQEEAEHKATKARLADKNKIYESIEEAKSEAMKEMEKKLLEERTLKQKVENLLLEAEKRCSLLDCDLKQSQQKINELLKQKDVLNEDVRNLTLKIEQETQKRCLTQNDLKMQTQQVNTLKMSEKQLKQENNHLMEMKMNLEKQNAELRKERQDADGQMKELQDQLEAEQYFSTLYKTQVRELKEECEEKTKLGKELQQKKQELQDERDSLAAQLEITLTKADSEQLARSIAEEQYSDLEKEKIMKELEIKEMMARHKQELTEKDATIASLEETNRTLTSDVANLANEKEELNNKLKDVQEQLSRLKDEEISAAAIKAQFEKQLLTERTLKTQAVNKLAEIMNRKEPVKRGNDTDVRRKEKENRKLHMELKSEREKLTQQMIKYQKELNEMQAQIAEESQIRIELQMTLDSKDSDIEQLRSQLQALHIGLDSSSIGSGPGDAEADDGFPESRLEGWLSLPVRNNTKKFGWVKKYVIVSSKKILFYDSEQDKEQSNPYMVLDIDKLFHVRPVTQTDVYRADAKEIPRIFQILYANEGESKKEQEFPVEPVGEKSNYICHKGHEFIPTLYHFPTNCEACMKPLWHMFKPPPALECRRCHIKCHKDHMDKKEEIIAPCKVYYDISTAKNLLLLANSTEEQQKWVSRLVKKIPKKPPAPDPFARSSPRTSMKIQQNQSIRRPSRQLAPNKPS
Sequence of CHK1 (O14757 whole entry): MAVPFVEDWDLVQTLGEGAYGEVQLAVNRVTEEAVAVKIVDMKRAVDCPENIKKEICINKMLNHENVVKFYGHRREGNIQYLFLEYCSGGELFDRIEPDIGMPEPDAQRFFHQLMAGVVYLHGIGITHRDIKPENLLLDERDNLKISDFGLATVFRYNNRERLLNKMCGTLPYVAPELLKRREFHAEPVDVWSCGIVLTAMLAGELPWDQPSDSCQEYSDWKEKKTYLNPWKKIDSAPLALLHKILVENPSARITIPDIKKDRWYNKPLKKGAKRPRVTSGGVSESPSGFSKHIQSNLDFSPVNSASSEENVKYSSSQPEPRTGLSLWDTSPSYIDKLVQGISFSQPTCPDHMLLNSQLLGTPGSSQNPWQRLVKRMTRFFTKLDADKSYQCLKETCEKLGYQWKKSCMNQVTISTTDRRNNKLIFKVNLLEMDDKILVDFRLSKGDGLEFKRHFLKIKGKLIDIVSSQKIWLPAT
Sequence of PIM2 (Q9P1W9 whole entry): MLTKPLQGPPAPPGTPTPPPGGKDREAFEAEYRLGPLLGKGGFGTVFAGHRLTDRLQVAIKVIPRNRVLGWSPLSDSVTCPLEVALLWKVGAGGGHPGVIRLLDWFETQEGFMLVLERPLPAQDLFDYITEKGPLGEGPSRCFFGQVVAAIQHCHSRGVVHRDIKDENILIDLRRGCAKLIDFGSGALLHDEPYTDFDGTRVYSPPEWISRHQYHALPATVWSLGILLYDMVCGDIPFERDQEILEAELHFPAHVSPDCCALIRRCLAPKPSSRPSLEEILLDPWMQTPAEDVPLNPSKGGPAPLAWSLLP
Sequence of PLK1 (P53350 whole entry): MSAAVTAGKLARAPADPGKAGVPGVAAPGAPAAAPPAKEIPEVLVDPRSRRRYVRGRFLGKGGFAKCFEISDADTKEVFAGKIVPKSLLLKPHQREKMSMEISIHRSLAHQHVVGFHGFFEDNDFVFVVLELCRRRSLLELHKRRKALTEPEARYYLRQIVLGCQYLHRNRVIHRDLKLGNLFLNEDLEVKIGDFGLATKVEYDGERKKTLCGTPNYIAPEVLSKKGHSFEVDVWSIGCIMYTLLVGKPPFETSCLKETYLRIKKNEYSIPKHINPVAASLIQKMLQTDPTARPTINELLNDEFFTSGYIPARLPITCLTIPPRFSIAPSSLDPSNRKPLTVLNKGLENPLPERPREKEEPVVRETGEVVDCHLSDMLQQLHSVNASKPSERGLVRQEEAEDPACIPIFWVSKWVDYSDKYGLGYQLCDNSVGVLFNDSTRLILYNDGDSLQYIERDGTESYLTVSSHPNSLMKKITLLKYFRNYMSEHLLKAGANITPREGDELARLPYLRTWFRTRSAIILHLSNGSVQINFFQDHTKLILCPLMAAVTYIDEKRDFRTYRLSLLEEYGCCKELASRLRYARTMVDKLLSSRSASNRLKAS
Sequence of MST2 (Q13188 whole entry): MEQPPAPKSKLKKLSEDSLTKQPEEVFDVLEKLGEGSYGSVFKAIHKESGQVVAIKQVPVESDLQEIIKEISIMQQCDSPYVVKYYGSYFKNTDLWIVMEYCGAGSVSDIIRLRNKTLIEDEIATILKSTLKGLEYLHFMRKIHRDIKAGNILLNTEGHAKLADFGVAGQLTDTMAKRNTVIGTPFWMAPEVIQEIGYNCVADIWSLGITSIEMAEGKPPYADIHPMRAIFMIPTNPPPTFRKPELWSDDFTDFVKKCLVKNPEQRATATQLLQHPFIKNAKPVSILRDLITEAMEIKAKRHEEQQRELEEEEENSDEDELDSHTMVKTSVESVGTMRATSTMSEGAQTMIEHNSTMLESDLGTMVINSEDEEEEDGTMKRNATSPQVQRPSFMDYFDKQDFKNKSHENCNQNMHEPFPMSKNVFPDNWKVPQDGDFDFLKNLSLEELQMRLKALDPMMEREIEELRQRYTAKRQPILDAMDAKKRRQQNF
Sequence of Aurora B (Q96GD4 whole entry): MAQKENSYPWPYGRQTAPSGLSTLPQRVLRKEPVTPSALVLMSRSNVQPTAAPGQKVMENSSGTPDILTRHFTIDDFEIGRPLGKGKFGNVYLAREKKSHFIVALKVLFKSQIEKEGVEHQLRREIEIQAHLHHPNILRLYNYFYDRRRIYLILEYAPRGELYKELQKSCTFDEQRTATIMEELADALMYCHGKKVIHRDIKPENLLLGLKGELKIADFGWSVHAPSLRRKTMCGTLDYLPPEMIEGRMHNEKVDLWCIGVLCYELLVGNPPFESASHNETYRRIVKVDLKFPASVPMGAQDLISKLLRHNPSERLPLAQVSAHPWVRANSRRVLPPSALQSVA
Sequence of JNK1 (P45983 whole entry): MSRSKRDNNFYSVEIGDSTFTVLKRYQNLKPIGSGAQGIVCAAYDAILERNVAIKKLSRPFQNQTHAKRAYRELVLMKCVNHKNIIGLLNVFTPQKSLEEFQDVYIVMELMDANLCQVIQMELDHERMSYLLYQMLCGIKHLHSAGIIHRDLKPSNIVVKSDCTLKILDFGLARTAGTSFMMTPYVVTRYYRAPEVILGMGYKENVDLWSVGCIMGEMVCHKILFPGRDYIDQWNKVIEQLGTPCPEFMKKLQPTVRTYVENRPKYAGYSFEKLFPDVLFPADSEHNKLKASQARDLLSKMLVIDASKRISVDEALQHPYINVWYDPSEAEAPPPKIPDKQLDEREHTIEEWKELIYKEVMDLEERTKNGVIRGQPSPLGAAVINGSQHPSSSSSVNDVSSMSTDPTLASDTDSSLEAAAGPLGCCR

Row | SMILES | JNK1 % activity remaining [1] [%] | MSK1 % activity remaining [2] [%] | YES1 % activity remaining [3] [%] | MST2 % activity remaining [4] [%] | S6K1 % activity remaining [5] [%] | ROCK 2 % activity remaining [6] [%] | Src % activity remaining [7] [%] | PIM2 % activity remaining [8] [%] | PLK1 % activity remaining [9] [%] | DYRK2 % activity remaining [10] [%] | CDK2-Cyclin A % activity remaining [11] [%] | TBK1 % activity remaining [12] [%] | ERK1 % activity remaining [13] [%] | PDK1 % activity remaining [14] [%] | PRK2 % activity remaining [15] [%] | PKCz % activity remaining [16] [%] | BRSK2 % activity remaining [17] [%] | CAMK1 % activity remaining [18] [%] | CHK1 % activity remaining [19] [%] | GCK % activity remaining [20] [%] | also measured
1 | Cc1nn(C)cc1-c1nc2c(-c3cnn(Cc4ccccc4)c3)c(Cl)cnc2[nH]1 [Compound 7a] | 13 | 62 | 12 | 60 | 18 | 36 | 9 | 86 | 75 | 29 | 1 | 24 | 28 | 52 | 42 | 103 | 33 | 87 | 68 | 22 | IRR % activity remaining [21]: 20%; PKCa % activity remaining [22]: 63%; PKA % activity remaining [23]: 72%; IR % activity remaining [24]: 3%; HIPK2 % activity remaining [25]: 6%; TAK1 % activity remaining [26]: 6%; GI50 [27]: 150 nM; MLM % met/30 min [28]: 40%; IC50 [29]: 461 ± 147 nM; IC50 [30]: 212 ± 107 nM; HLM % met/30 min [31]: 43%; GI50 [32]: 180 nM
2 | Cc1cc(Cn2cc(-c3c(Cl)cnc4[nH]c(-c5cn(C)nc5C)nc34)cn2)no1 [Compound 14d] | 45 | 61 | 18 | 80 | 12 | 44 | 8 | 91 | 115 | 34 | 1 | 7 | 52 | 49 | 43 | 96 | 72 | 77 | 52 | 40 | IRR % activity remaining [21]: 24%; PKCa % activity remaining [22]: 83%; PKA % activity remaining [23]: 63%; IR % activity remaining [24]: 53%; HIPK2 % activity remaining [25]: 11%; TAK1 % activity remaining [26]: 18%; GI50 [27]: 340 nM; MLM % met/30 min [28]: 35%; IC50 [29]: 75 nM; IC50 [30]: 35 nM; HLM % met/30 min [31]: 37%; GI50 [32]: 350 nM
